Patent publication US11234954B2, “Low-dose doxepin for treatment of sleep disorders in elderly patients” (Pernix Sleep, Inc., priority 2006, dated 2022)
Like-named read-outs stand apart in the source and are kept apart here.

Experiments:
[1] = in vivo; cited from earlier work
[2] = system: patients aged 65 years or older with primary sleep maintenance insomnia; experiment: Adverse events and safety, elderly crossover study (Example 1); type: in vivo, human
Description: All randomized patients who received at least one dose of double-blind study medication were included in the safety analyses, which were based on observed data.
The adverse events are arranged by system organ class.

[3] = system: patients aged 65 years or older with primary sleep maintenance insomnia; experiment: Subjective sleep data, elderly crossover study (Example 1); type: in vivo, human; conditions: n = 71
Description: “sWASO” refers to subjective wake after sleep onset (WASO).
“sTST” refers to subjective total sleep time.
“sNAASO” refers to subjective NAASO.
“LSO” refers to “latency to sleep onset, typically expressed in minutes.
The patients report subjected data, which were consistent with the PSG data.

[4] = system: primary elderly insomnia patients with sleep maintenance difficulties; type: in vivo, human
Description: Subjects were females and males, 65 years of age or older, with at least a 3-month history of primary insomnia (as defined in the Diagnostic and Statistical Manual of Mental Disorders, Fourth Edition, Text Revision), who reported experiencing at least 60 minutes of Wake After Sleep Onset (WASO), at least 30 minutes of Latency to Sleep Onset (LSO), and no more than 6.5 hours of Total Sleep Time (TST) on at least 4 of 7 consecutive nights prior to PSG Screening.
Primary Efficacy Variable: The primary efficacy variable was WASO on Night 1.
Additional PSG Variables: Additional efficacy variables assessed on each PSG recording night during the Double-blind Treatment Period were WASO (Night 15, Night 29, Night 57, and Night 85); WTDS; TST; Sleep Efficiency (SE) overall, by third of the night, the last quarter of the night, and hour of the night; LPS; Latency to Stage 2 Sleep; Number of Awakenings After Sleep Onset (NAASO) overall and by hour; Total Wake Time (TWT) overall and by hour; Wake Time After Sleep (WTAS); and sleep architecture (including percentage and minutes of Stage 1, 2, and 3-4 sleep; percentage and minutes of rapid eye movement [REM] and non-REM sleep; and Latency to REM Sleep.)

[5] = system: primary elderly insomnia patients with sleep maintenance difficulties; experiment: Clinical Global Impressions (CGI), Phase III elderly study (Example 2); type: in vivo, human
Description: Subjective Variables: Subjective efficacy variables were subjective TST (sTST), subjective WASO (sWASO), LSO, subjective NAASO (sNAASO), and sleep quality. These variable were assessed using a questionnaire completed in the morning following each PSG recording night. Drowsiness, ability to function, and total nap time during the day were assessed using an evening questionnaire completed prior to PSG recording at Nights −6, −5, 1, 15, 29, 57, and 85. Other secondary subjective efficacy variables included the 2-item Clinical Global Impressions (CGI) scale for severity of illness and therapeutic effect completed by a clinician; the 5-item CGI scale pertaining to therapeutic effect completed by the subject; the Insomnia Severity Index (ISI) completed by the subject, and a subjective assessment of sTST, LSO, and sleep quality collected through the IVRS.
Clinical Global Impressions (CGI) ns (CGI) consist of two questions addressed to the clinician relating to the severity of illness and therapeutic effect of the study drug and five questions addressed to the patient relating to the therapeutic effect of the drug.

[6] = system: Adult Patients (Ages 18-64) with Primary Insomnia; experiment: Adverse events and safety, adult crossover study (Example 3); type: in vivo, human
Description: A randomized, multi-center, double-blind, placebo-controlled, four-period crossover, dose-response study was designed to assess the effects of doxepin (1 mg, 3 mg and 6 mg) compared with placebo in patients with primary sleep maintenance insomnia.
Patients who qualified for study entry, based on the screening PSG assessments, were randomized to a treatment sequence using a Latin square design. A final study visit was performed for patients either after completion of the four treatment periods or upon discontinuation from the study. Efficacy assessments were made at each visit and safety assessments were performed throughout the study.
The main inclusion criteria were male and/or female patients, aged 18 to 64 years, in good general health with at least a 3-month history of DSM-IV-defined primary insomnia, reporting each of the following on four of seven nights prior to PSG screening: ≤6.5 hours of total sleep time (TST), ≥60 min of WASO and ≥20 min of LSO. Doxepin HCl 1 mg, 3 mg and 6 mg capsules, and placebo capsules, were provided as a single dose for oral administration.

Question: With `CN(C)CCC=C1c2ccccc2COc2ccccc21` (mixture of isomers) [Doxepin] as the molecule, how does the mean half-life [1] read?
Answer: 17 h

Question: What about the “HEADACHE: Number of Events” value ([2]; 1 mg, N = 74) of the same molecule?
Answer: 0

Question: What about the “HEADACHE: Number of Patients” value ([2]; 1 mg, N = 74) of the same molecule?
Answer: 0 (0%)

Question: And the “HEADACHE: Number of Events” value ([2]; 3 mg, N = 75)?
Answer: 0

Question: What about the “HEADACHE: Number of Patients” value ([2]; 3 mg, N = 75) of the same molecule?
Answer: 0 (0%)

Question: What about the “HEADACHE: Number of Events” value ([2]; 6 mg, N = 74) of the same molecule?
Answer: 0

Question: What about the “HEADACHE: Number of Patients” value ([2]; 6 mg, N = 74) of the same molecule?
Answer: 0 (0%)

Question: And the “LSO, Mean (SD)” value ([3]; 1 mg)?
Answer: 42.3 (32.1)

Question: And the “Sleep Quality, Mean (SD)” value ([3]; 1 mg)?
Answer: 0.8 (1.0)

Question: What about the “sNAASO, Mean (SD)” value ([3]; 1 mg) of the same molecule?
Answer: 3.2 (2.1)

Question: What about the “sTST, Mean (SD)” value ([3]; 1 mg) of the same molecule?
Answer: 355.7 (63.1)

Question: And the “sWASO, Mean (SD)” value ([3]; 1 mg)?
Answer: 74.3 (55.2)

Question: What about the “LSO, Mean (SD)” value ([3]; 3 mg) of the same molecule?
Answer: 42.4 (40.1)

Question: What about the “Sleep Quality, Mean (SD)” value ([3]; 3 mg) of the same molecule?
Answer: 0.9 (1.0)

Question: What about the “sNAASO, Mean (SD)” value ([3]; 3 mg) of the same molecule?
Answer: 2.9 (1.7)

Question: What about the “sTST, Mean (SD)” value ([3]; 3 mg) of the same molecule?
Answer: 362.4 (64.3)

Question: And the “sWASO, Mean (SD)” value ([3]; 3 mg)?
Answer: 72.2 (56.4)

Question: What about the “LSO, Mean (SD)” value ([3]; 6 mg) of the same molecule?
Answer: 33.9 (24.8)

Question: What about the “Sleep Quality, Mean (SD)” value ([3]; 6 mg) of the same molecule?
Answer: 0.8 (1.0)

Question: And the “sNAASO, Mean (SD)” value ([3]; 6 mg)?
Answer: 3.0 (1.4)

Question: And the “sTST, Mean (SD)” value ([3]; 6 mg)?
Answer: 369.4 (65.3)

Question: And the “sWASO, Mean (SD)” value ([3]; 6 mg)?
Answer: 71.5 (57.4)

Question: What about the “LS mean WASO shorter compared with the placebo group” value ([4]; Night 1, 1 mg) of the same molecule?
Answer: 17.8 min

Question: What about the “LPS, mean (SD)” value ([4]; Night 1, 1 mg, ITT N = 77) of the same molecule?
Answer: 38.8 (29.58) minutes

Question: And the “SE Overall, mean (SD)” value ([4]; Night 1, 1 mg, ITT N = 77)?
Answer: 74.8 (11.05) %

Question: And the “TST, mean (SD)” value ([4]; Night 1, 1 mg, ITT N = 77)?
Answer: 359.1 (53.05) minutes

Question: What about the “WTAS, mean (SD)” value ([4]; Night 1, 1 mg, ITT N = 77) of the same molecule?
Answer: 8.9 (18.84) minutes

Question: What about the “WASO, Diff. of LS Mean versus placebo” value ([4]; Night 1, 1 mg, ITT n = 77) of the same molecule?
Answer: -17.8 min

Question: What about the “WASO, Mean (Primary Efficacy Variable)” value ([4]; Night 1, 1 mg, ITT n = 77) of the same molecule?
Answer: 91.8 min

Question: What about the “LS mean WASO shorter compared with the placebo group” value ([4]; Night 1, 3 mg) of the same molecule?
Answer: 33.8 min

Question: What about the “LPS, mean (SD)” value ([4]; Night 1, 3 mg, ITT N = 82) of the same molecule?
Answer: 28.6 (20.53) minutes

Question: And the “SE Overall, mean (SD)” value ([4]; Night 1, 3 mg, ITT N = 82)?
Answer: 79.8 (9.21) %

Question: What about the “TST, mean (SD)” value ([4]; Night 1, 3 mg, ITT N = 82) of the same molecule?
Answer: 382.9 (44.23) minutes

Question: And the “WTAS, mean (SD)” value ([4]; Night 1, 3 mg, ITT N = 82)?
Answer: 4.7 (14.61) minutes

Question: And the “WASO, Diff. of LS Mean versus placebo” value ([4]; Night 1, 3 mg, ITT n = 82)?
Answer: -33.8 min

Question: And the “WASO, Mean (Primary Efficacy Variable)” value ([4]; Night 1, 3 mg, ITT n = 82)?
Answer: 74.5 min

Question: What about the “LPS, mean (SD)” value ([4]; Night 85, 1 mg, ITT N = 77) of the same molecule?
Answer: 29.0 (26.45) minutes

Question: And the “SE Overall, mean (SD)” value ([4]; Night 85, 1 mg, ITT N = 77)?
Answer: 75.1 (9.83) %

Question: What about the “TST, mean (SD)” value ([4]; Night 85, 1 mg, ITT N = 77) of the same molecule?
Answer: 360.5 (47.17) minutes

Question: What about the “WTAS, mean (SD)” value ([4]; Night 85, 1 mg, ITT N = 77) of the same molecule?
Answer: 10.8 (21.78) minutes

Question: And the “WASO, Diff. of LS Mean versus placebo” value ([4]; Night 85, 1 mg, ITT n = 69)?
Answer: -14.6 min

Question: And the “WASO, Mean” value ([4]; Night 85, 1 mg, ITT n = 69)?
Answer: 97.0 min

Question: What about the “LPS, mean (SD)” value ([4]; Night 85, 3 mg, ITT N = 82) of the same molecule?
Answer: 37.5 (32.74) minutes

Question: And the “SE Overall, mean (SD)” value ([4]; Night 85, 3 mg, ITT N = 82)?
Answer: 77.9 (8.80) %

Question: And the “TST, mean (SD)” value ([4]; Night 85, 3 mg, ITT N = 82)?
Answer: 373.7 (42.24) minutes

Question: And the “WTAS, mean (SD)” value ([4]; Night 85, 3 mg, ITT N = 82)?
Answer: 5.4 (13.20) minutes

Question: What about the “WASO, Diff. of LS Mean versus placebo” value ([4]; Night 85, 3 mg, ITT n = 74) of the same molecule?
Answer: -33.2 min

Question: And the “WASO, Mean” value ([4]; Night 85, 3 mg, ITT n = 74)?
Answer: 75.7 min

Question: And the “mean CGI (clinician-rated) severity of illness and therapeutic effect scores compared with placebo” value ([5]; Night 85, both doxepin treatment groups (1 mg, 3 mg))?
Answer: statistically significant improvements

Question: And the “CGI (subject-rated) scale of therapeutic effect, all five parameters, compared with placebo” value ([5]; after 85 nights of treatment, both doxepin groups (1 mg, 3 mg))?
Answer: statistically significant improvements

Question: What about the “HEADACHE: Number of Events” value ([6]; 1 mg, N = 66) of the same molecule?
Answer: 3

Question: And the “HEADACHE: Number of Patients” value ([6]; 1 mg, N = 66)?
Answer: 3 (5%)

Question: What about the “NASAL CONGESTION: Number of Events” value ([6]; 1 mg, N = 66) of the same molecule?
Answer: 1

Question: What about the “NASAL CONGESTION: Number of Patients” value ([6]; 1 mg, N = 66) of the same molecule?
Answer: 1 (2%)

Question: What about the “HEADACHE: Number of Events” value ([6]; 3 mg, N = 66) of the same molecule?
Answer: 0

Question: And the “HEADACHE: Number of Patients” value ([6]; 3 mg, N = 66)?
Answer: 0 (0%)

Question: What about the “NASAL CONGESTION: Number of Events” value ([6]; 3 mg, N = 66) of the same molecule?
Answer: 0

Question: What about the “NASAL CONGESTION: Number of Patients” value ([6]; 3 mg, N = 66) of the same molecule?
Answer: 0 (0%)

Question: What about the “HEADACHE: Number of Events” value ([6]; 6 mg, N = 67) of the same molecule?
Answer: 1

Question: And the “HEADACHE: Number of Patients” value ([6]; 6 mg, N = 67)?
Answer: 1 (1%)

Question: What about the “NASAL CONGESTION: Number of Events” value ([6]; 6 mg, N = 67) of the same molecule?
Answer: 0

Question: What about the “NASAL CONGESTION: Number of Patients” value ([6]; 6 mg, N = 67) of the same molecule?
Answer: 0 (0%)
